Where a name gives a salt, the structure may show the parent alone. Read-outs that look alike come from different tables or passages of the source.
Columns and labels:
[1] = Acute toxicity test of sodium salt of N-acetylneuraminic acid, rat (Example 11); assay type: in vivo, SD rats; details: in vivo
Description: (§1) A test was conducted to examine the acute toxicity of sodium salt of N-acetylneuraminic acid, using mice, rats, and guinea pig by means of per as, subcutaneous injection, intravenous injection, intraperitoneal injection, and inhalation.
(§2) 20% (W/V) dissolved in distilled water
(§3) Inhalation was conducted by 1hr exposure to mist.

[2] = tested on: rat; assay: as above; assay type: in vivo, SD rats; details: inhalation, 1hr exposure to mist
Description: as §1, §2, §3

[3] = Rheological properties and pH of purulent sputum after sodium salt treatment (Example 10); parameters: species or system human; details: 1 mg/ml sputum
Description: (§4) The sputum used as the specimens was collected from 12 samples of patients suffering from chronic obstructive lung disease. N-acetylneuraminic acid was added to the specimen sputum in the ratios of 5 mg/ml sputum and 1 mg/ml sputum, and the specimen was left for 1 hour at 4° C. before measurement. Sputum which has not been treated by N-acetylneuraminic acid was used as a comparison example. A palatine mucosa obtained from a decapitated frog head was kept at constant temperature and humidity until the mucus liquid of the frog itself depleted. The specimen sputum was placed on the dried palatine mucosa, and the speed of movement of the sputum was observed through a noumenal microscope, thus measuring the MTR. The pH value of the sputum was measured by means of an electronic model HM-SAp pH meter, while the spinnability was measured by a device developed by Nagaoka and Yamanaka (disclosed in Transactions of 2nd Symposium of Cough and sputum, published July 20, 1979). The yield value was measured by Dulfano's double-tube method which is shown in the American Review of Respiratory Diseases, Vol. 104, p88, 1971.
(§5) Effect of sodium salt of N-acetylneuraminic acid on sputum was examined in accordance with the testing method explained in connection with Example 5.

[4] = tested on: palatine mucosa of frog; assay: Mucociliary transport of frog palatine mucosa (Example 8, Table 6); assay type: cell-based; details: for activation at 100 µg/mL: 10^-1 mg/ml; for activation at 100 µg/mL / activation at 10 µg/mL / activation at 1 µg/mL / activation at 0.1 µg/mL: mean ± SD, over 20.0% significant, read-out: Acceleration (mucociliary transport); for activation at 10 µg/mL: 10^-2 mg/ml; for activation at 1 µg/mL: 10^-3 mg/ml; for activation at 0.1 µg/mL: 10^-4 mg/ml
Description: Mucociliary transport was measured by the particle transport method. After decapitation of a frog, the surface of the palatine mucosa was separated with minimized damage and of fixed to a cork plate in a Petri dish which was then filled with 20 ml of Ringer's solution (trishydrochloric acid). The palatine mucosa was left in this state for 30 minutes before the commencement of measurement. For measurement, the Ringer's solution was removed and fine pieces of cork (capable of passing pharmaceutical sieve No. 5 but not capable of passing No. 6) were placed on the surface of the palatine mucosa, and the time (in seconds) required for the cork piece to move 1 cm was measured. The duration of movement, i.e., moving speed, was measured also in the state immediately after the removal of the Ringer's solution or pharmaceutical solution.

[5] = tested on: ciliated cell; assay: Rotating ciliated explant (Example 9, Table 7); assay type: cell-based; details: for activation at 100 µg/mL: 10^-1 mg/ml; for activation at 100 µg/mL / activation at 10 µg/mL / activation at 1 µg/mL / activation at 0.1 µg/mL: mean ± SD, > 20.0 significant, read-out: Acceleration (rotating ciliated explant); for activation at 10 µg/mL: 10^-2 mg/ml (terbutaline 1-^-2 [sic]); for activation at 0.1 µg/mL: 10^-4 mg/ml
Description: Human ciliated cells were collected from a normal trachea by means of a branchoscope, the ciliated cells being separated by rubbing the bronchus while observing through the branchoscope, while the collection of frog cilitated cells was conducted by rubbing the palatine mucosta, without being specially careful. […] The groups of cells were transferred to a cover slip and one drop of chicken plasma (prepared by Difco Company) and one drop of 50% chicken embryo extract were added to the cells, thus forming clots. The rotary motion in the clots was recorded by means of a video recorder and the number of rotations per minute was measured. The agents were dissolved in the Medium 199 and were injected through a tube attached to a rose chamber. The state of rotary motion 5 minutes, 10 minutes and 15 minutes after the injection were recorded by means of a video recorder, and the number of revolutions was measured.
A test was conducted to examine the above-mentioned effect by using sodium salt of N-Acetylneuraminic Acid, in accordance with the same testing method as that of Example 2.

[6] = Acute toxicity test of sodium salt of N-acetylneuraminic acid, guinea pig (Example 11); parameters: species or system Hartley guinea pig; details: in vivo, intravenous injection, 95% 2,355-4,087
Description: as §1
Hartley guinea pig: 6 weeks old
as §2

[7] = tested on: purulent sputum from patients with diffuse panbronchiolitis; assay: MTR of purulent sputum after sodium salt treatment (Example 10); parameters: species or system human sputum; frog palatine mucosa; details: 1 mg/ml sputum
Description: as §4, §5

[8] = Acute toxicity test of sodium salt of N-acetylneuraminic acid, mouse (Example 11); parameters: species or system ICR mice; details: in vivo
Description: as §1, §2

[9] = ip, intraperitoneal injection, first line (sex not given)
[10] = ip, intraperitoneal injection, second line (sex not given)
[11] = po, per os, first line (sex not given)
[12] = po, per os, second line (sex not given)
[13] = sc, subcutaneous injection, first line (sex not given)
[14] = sc, subcutaneous injection, second line (sex not given)

Compound: CC(=O)N[C@H]1[C@H]([C@H](O)[C@H](O)CO)OC(O)(C(=O)O)C[C@@H]1O (stereo partly drawn) [sodium salt of N-acetylneuraminic acid]
- LD50 at 336 h [1, 9]: > 5000 mg/kg
- LD50 at 336 h [1, 10]: > 5000 mg/kg
- LD50 at 336 h ([1]; iv, intravenous injection, first line (sex not given), 95% 2,638-3,342): 2970 mg/kg
- LD50 at 336 h ([1]; iv, intravenous injection, second line (sex not given)): > 5000 mg/kg
- LD50 at 336 h [1, 11]: > 5000 mg/kg
- LD50 at 336 h [1, 12]: > 5000 mg/kg
- LD50 at 336 h [1, 13]: > 5000 mg/kg
- LD50 at 336 h [1, 14]: > 5000 mg/kg
- LD50 ([2]; first line (sex not given)): > 4,000 mg/m^3
- LD50 ([2]; second line (sex not given)): > 4,000 mg/m^3
- Change of spinnability [3]: generally increased
- Change of sputum pH [3]: significant increase in pH value
- Change of yield value [3]: a reduction was observed with regard to the yield value
- Yield value after treatment ([3]; 15 specimens, mean ± S.D., before 0.8 ± 1.5): 0.3 ± 0.6 mmH2 O
- pH after treatment ([3]; 15 specimens, mean ± S.D., before 7.48 ± 0.41, P < 0.001): 7.91 ± 0.43
- Spinnability after treatment ([3]; 15 specimens, mean ± S.D., before 13 ± 14): 21 ± 28 mm
- activation at 100 µg/mL ([4]; 5 min, 5 min after applied): 10.7 ± 19.2%
- activation at 10 µg/mL ([4]; 5 min, 5 min after applied): 20.8 ± 25.5%
- activation at 1 µg/mL ([4]; 5 min, 5 min after applied): 16.2 ± 19.5%
- activation at 0.1 µg/mL ([4]; 5 min, 5 min after applied): 2.6 ± 22.2%
- activation at 100 µg/mL ([4]; 10 min, 10 min after applied): 8.5 ± 23.4%
- activation at 10 µg/mL ([4]; 10 min, 10 min after applied): 18 ± 29.7%
- activation at 1 µg/mL ([4]; 10 min, 10 min after applied): 18.9 ± 22.1%
- activation at 0.1 µg/mL ([4]; 10 min, 10 min after applied): 8.5 ± 21.9%
- activation at 100 µg/mL ([4]; 0.25 h, 15 min after applied): 7.4 ± 24.7%
- activation at 10 µg/mL ([4]; 0.25 h, 15 min after applied): 5.7 ± 24.9%
- activation at 1 µg/mL ([4]; 0.25 h, 15 min after applied): 17.7 ± 34%
- activation at 0.1 µg/mL ([4]; 0.25 h, 15 min after applied): 7.1 ± 27.2%
- Effect on MTR of frog palatine mucosa ([4]; Table 6): acceleration of the MTR of the frog palatine mucosa in a certain dependency on the dose
- Effect compared with acetylcholine ([4]; acetylcholine at 10^-4 mg/ml): subtantially equivalent to that of the acetylcholine
- Effect on number of rotations ([5]; 10^-3 mg/ml): A significant number of rotations was observed
- activation at 100 µg/mL ([5]; 5 min, 5 min after perfusion): 0%
- activation at 10 µg/mL ([5]; 5 min, 5 min after perfusion): 1.5 ± 11.6%
- activation at 1 µg/mL ([5]; 5 min, 10^-3 mg/ml, 5 min after perfusion): 11.6 ± 29.8%
- activation at 0.1 µg/mL ([5]; 5 min, 5 min after perfusion): -3.4 ± 9.7%
- activation at 100 µg/mL ([5]; 10 min, 10 min after perfusion): 4.7 ± 6.6%
- activation at 10 µg/mL ([5]; 10 min, 10 min after perfusion): 2.1 ± 18.2%
- activation at 1 µg/mL ([5]; 10 min, 10^-3 mg/ml, 10 min after perfusion): 20.7 ± 27.5%
- activation at 0.1 µg/mL ([5]; 10 min, 10 min after perfusion): 0.6 ± 10.6%
- activation at 100 µg/mL ([5]; 0.25 h, 15 min after perfusion): 15.4 ± 9.3%
- activation at 10 µg/mL ([5]; 0.25 h, 15 min after perfusion): 3.7 ± 29.3%
- activation at 1 µg/mL ([5]; 0.25 h, 10^-3 mg/ml, 15 min after perfusion): 16.2 ± 32.3%
- activation at 0.1 µg/mL ([5]; 0.25 h, 15 min after perfusion): -5 ± 8.2%
- LD50 at 336 h [6]: 2860 mg/kg
- Change of sputum MTR [7]: significant increase in pH value and MTR
- MTR after treatment ([7]; 15 specimens, mean ± S.D., before 9 ± 5, P < 0.01): 12 ± 5 mm/min.
- LD50 at 336 h [8, 9]: > 5000 mg/kg
- LD50 at 336 h [8, 10]: > 5000 mg/kg
- LD50 at 336 h ([8]; iv, intravenous injection, first line (sex not given), 95% 5,679-7,084): 6290 mg/kg
- LD50 at 336 h ([8]; iv, intravenous injection, second line (sex not given), 95% 7,214-9,073): 7950 mg/kg
- LD50 at 336 h [8, 11]: > 5000 mg/kg
- LD50 at 336 h [8, 12]: > 5000 mg/kg
- LD50 at 336 h [8, 13]: > 5000 mg/kg
- LD50 at 336 h [8, 14]: > 5000 mg/kg

Reference: patent publication US4698332A, “Expectorant” (Mect Corporation, priority 1984, dated 1987)
